Measured values taken from paper PMC11483914, “Appendage- and Scaffold-Diverse Electrophilic and Photoreactive Probes for Integrated Phenotypic Screening–Target Identification Campaigns via a Minimalist Bifunctional Isocyanide” (ACS Omega, 2024).

Columns and labels:
[1] = biological target: T1, protein disulfide isomerase A1 (PDIA1) (Homo sapiens, UniProt P07237); assay: insulin reductase (insulin aggregation) assay; assay type: biochemical; conditions: covalent; a-site C53
T1 construct: gene P4HB; full-length PDIA1 overexpressed in HEK293T (anti-myc detected) for labelling, also endogenous
T1 sequence (P07237 18-508): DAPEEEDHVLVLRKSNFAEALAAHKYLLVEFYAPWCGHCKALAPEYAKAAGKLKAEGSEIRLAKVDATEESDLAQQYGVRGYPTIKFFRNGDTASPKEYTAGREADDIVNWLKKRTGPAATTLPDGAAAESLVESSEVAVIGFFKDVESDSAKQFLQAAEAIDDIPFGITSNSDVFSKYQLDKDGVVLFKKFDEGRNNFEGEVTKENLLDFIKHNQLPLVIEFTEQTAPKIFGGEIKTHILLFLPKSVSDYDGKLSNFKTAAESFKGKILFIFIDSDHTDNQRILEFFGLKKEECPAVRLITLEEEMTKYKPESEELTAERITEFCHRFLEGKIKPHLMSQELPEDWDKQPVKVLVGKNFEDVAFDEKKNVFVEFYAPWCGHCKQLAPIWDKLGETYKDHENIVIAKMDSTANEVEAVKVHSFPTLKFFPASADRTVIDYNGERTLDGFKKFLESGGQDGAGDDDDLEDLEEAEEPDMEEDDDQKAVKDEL

[2] = biological target: T1, protein disulfide isomerase A1 (PDIA1); assay: in-gel fluorescence after CuAAC, SKOV-3 wildtype versus PDIA1 knockout and HEK293T overexpression; assay type: cell-based; conditions: 500 nM, 1 h

Compound: C#CCN(CCNC(=O)C1(N(CC=C)C(=O)c2ccc(Cl)cc2)CCN(Cc2ccccc2)CC1)C(=O)CCl [4a, FFSMP 4a]
- inhibition of PDIA1 activity [1]: FFSMP 4a was shown to inhibit PDIA1 at low μM concentrations
- covalent labelling [2]: confirming PDIA1 as a predominant protein target of biologically active FFSMP 4a
